Key:
[1] = tested on: human prostate cancer TRAMP C2 cell lines; assay type: cell-based
Procedure: (§1) The cytotoxicity of the conjugates was determined by measuring the mitochondrial enzyme activity, using a commercial XTT assay kit. All samples contained DMSO at a final concentration <0.05%. Cells were cultured in micro wells at 2-4×10^4 cells/mL and incubated for 24 h or 72 h at 37° C. After the first incubation period of 24 h the cultures were washed and then given a fresh medium containing different concentrations of the tested substances. At the end of the second incubation, XTT reagent was added and the cells were re-incubated for additional 2-4 h. During that time the absorbencies in the wells were measured with a TECAN Infinite M200 ELISA reader at both 480 and 680 nm. The difference between these measurements was used for calculating the % viability in test wells compared to two controls: cells that were exposed to the medium and solvent, and those which were exposed to a solvent-free medium. All the tests were done in triplicate. Each experiment was conducted twice.
(§2) The in vitro activity of 9a was determined on human embryonic kidney 293 (HEK293) cells and human prostate cancer TRAMP C2 cell lines in order to compare the cytotoxicity of 9a relative to the three selected free drugs. […] The cytotoxicity of 9a was determined by measuring the mitochondrial enzyme activity of the different cell lines after incubation with the different substances for 24 h and 72 h.

[2] = tested on: human embryonic kidney 293 (HEK293) cells; assay type: cell-based
Procedure: as §1, §2

[3] = tested on: HEK293 and TRAMP C2 cell lines; assay type: cell-based, human
Procedure: as §1, with “The difference between these measurements was used for calculating the % viability in test wells compared to two controls: cells that were exposed to the medium and solvent, and those which were exposed to a solvent-free medium. All the tests were done in triplicate. Each experiment was conducted twice.” left out
as §2, with “h. The viability factor (% of surviving cells) of the cell cultures was calculated relative to a control sample incubated with the vehicle only, considered as 100% viability. […]” for “h.”
FIGS. 19A-19D present the results of the viability assay (% surviving cells) of the cell cultures calculated relative to the control, 100% viability. […]

[4] = Bio-stability of 9a in murine liver homogenate (LH); assay type: in vitro ADME, mouse
Procedure: Preparation of the LH and assay: Mice were sacrificed by CO2 inhalation euthanasia. The livers were removed, minced, washed three times in cold PBS buffer and homogenized in Tris-HCl, pH 7.4 buffer (wt/3 vol.) by dozen strokes in a Potter-Elvehjem glass tissue grinder. The tissue homogenate was centrifuged at 4° C., 14000 rpm, 20 min. The supernatant was carefully collected (LH) and used immediately or else stored in liquid nitrogen. The concentration of protein was measured using the BCA protein assay with bovine serum albumin as a standard.
Assay incubation procedure: Incubations were conducted in an incubator oven set at 37° C. Each incubation tube contained 2 mL homogenate samples (equivalent to 6 mg total protein of mouse LH). The samples were prepared by adding 50 μL of stock solution to the LH at the beginning of the incubation period. Aliquots (100 μL) of the LH mixture were removed after 10, 30, 60, 90, 120, and 180 min. immediately quenched with 2.5 volumes of ethanol, and centrifuged at 14000 rpm for 15 min. The supernatants were collected, filtered and analyzed by LC-MS.
In order to get a biologically relevant picture of the release sequence of the different drugs, the bio-stability of 9a in murine liver homogenate (LH) was studied. Examination of the degradation rate of 9a, accompanied by cleavage of free drugs, was carried out following the LC-MS trace at different time intervals using premade authentic samples as reference signals.

In the case of COc1cc([C@@H]2c3[nH]c4ccccc4c3C[C@H]3COC(=O)N32)cc(OC)c1O [AZA, Azatoxin, reference compound], the surviving cells [1] is reported as “less than 10%”, the surviving cells [2] is reported as “less than 10%” and the “cytotoxic effect / relative cytotoxic activity” value [3] is reported as “most active drug”. For the same compound, the “stability of free drug in LH” value [4] was “stable”.

Source: patent US11311625B2, “Peptide-based multiple-drug delivery vehicle” (priority 2015, dated 2022)
